Structures can show the parent of a compound that is named as a salt. Where two headings read alike, the source gives them in different places.
Assays:
recombinant human MetAP2 = target: T1, recombinant human MetAP2 (Homo sapiens, UniProt P50579); experiment: Inhibition of recombinant human MetAP2 activity (MAS peptide / amino acid oxidase / Amplex assay); assay type: biochemical
T1 construct: Flag; made in house
Procedure: Compounds are tested for their capacity to inhibit recombinant human MetAP2 activity using the following assay.
Flag tagged Human recombinant MetAP2 expressed and isolated for use as the enzyme source. 10 mM stock solutions of compounds were prepared in 100% DMSO and further diluted in 100% DMSO required concentration to 1 mM stocks. The stock compound solutions and DMSO vehicle controls were diluted to target final compound concentrations using assay buffer to a final concentration of 50 mM HEPES containing 100 mM NaCl, pH adjusted to 7.5. The MAS peptide was formulated to a 7.5 mM stock in distilled water and prior to use further diluted 1:4. […] 40 μl of enzyme was mixed with 100 μl of MnCl2 then further diluted in assay buffer to a final concentration of 16 μg/ml. To test for compound effect on MetAP2 enzyme activity, 5 μl of test compound, 10 μl of MAS substrate/amino acid oxidase mixture, 10 μl of MetAP2 was added to test wells in a 384 well black plate with blank wells containing no enzyme, replaced with 10 μl of assay buffer. All compounds were tested in duplicate on two occasions on the same day.
The plate was sealed with a TopSeal A cover and mixed briefly on an orbital mixer at 900 rpm. The plate was incubated for a further 25 minutes at 25° C. A 5× stock of Amplex buffer was prepared (0.25M sodium phosphate, pH 7.4) and stored at 4° C. When preparing for use the stock was diluted with distilled water. […] Horse radish peroxidase was diluted in […] of Amplex buffer, 100 μl of this was combined with 50 μl of Amplex Ultrared in […] of 1× Amplex buffer to generate sufficient detection reagent for a 384 well plate. 25 μl detection reagent was added to each well of the test plate, which was re-sealed and mixed briefly on an orbital shaker. The plate was transferred to an Envision Multi-label reader and RFU measured corresponding to excitation 531 nm and emission 595 nm. At the end of the MetAP2 incubation 25 μl Amplex/HRP mixture per well was added and the plate read plate on a plate reader.

[1] = tested on: Diet Induced Obese (DIO) C57BL/6 mice; experiment: 10 day DIO mouse model, weight loss vs. vehicle; assay type: in vivo; settings: 240 h, 0.3 mpk sc once a day for 10 days
Description: The objective of this study design was to investigate the efficacy of disclosed compounds in a 10 day DIO mouse model. Effects on body weight, food intake, hematology and blood chemistry were the primary readouts of this study design. Male, Diet Induced Obese (DIO) C57BL/6 mice, 19-21 weeks of age (13-15 weeks on high fat diet) were ordered from a certified vendor and upon receipt were housed on irradiated corncob bedding in micro-isolator cages on a 12-hour light-dark cycle (0700-1900) at 68-74° F. and 30-70% humidity. Mice were fed Research Diets D12492 (60% Kcal fat, 20% Kcal carbohydrate and 20% protein) and provided water ad libitum. DIO mice were received and housed in the facility for approximately two weeks prior to the start of test article administration. On Day −4 or −3, mice were randomized into study groups based on body weight and body weights were continued to be recorded daily for the duration of the study. Daily food intake was assessed starting on Study Day −2 by weighing of the food with hopper together to avoid loss of food in transfer.
Compounds were formulated into a 100% DMSO stock (at 9 mg/mL) prior to the start, and further diluted into the target working concentration using the vehicle of 10% DMSO in water. Prior to test article administration, starting on Day −3 a dosing acclimation occured with all animals receiving a subcutaneous injection of vehicle (10% DMSO) only for 3 days. Starting on Day 1, test compounds or vehicle were administered based on individual body weight, subcutaneously, once a day for 10 days. All mice were sacrificed on Day 11, 24 hours following the final dosing on Day 10. After sacrifice, whole blood was collected and analyzed for hematology and blood chemistry parameters.
Compounds were tested for weight loss vs. vehicle at 0.3 and 1.0 mpk sc (mg per kg animal weight delivered subcutaneously), and the results are shown in Table 2 below.

[2] = Flag tagged human recombinant MetAP2, 25 minutes at 25° C., read-out: MetAP2 IC50

T1 sequence (P50579 whole entry): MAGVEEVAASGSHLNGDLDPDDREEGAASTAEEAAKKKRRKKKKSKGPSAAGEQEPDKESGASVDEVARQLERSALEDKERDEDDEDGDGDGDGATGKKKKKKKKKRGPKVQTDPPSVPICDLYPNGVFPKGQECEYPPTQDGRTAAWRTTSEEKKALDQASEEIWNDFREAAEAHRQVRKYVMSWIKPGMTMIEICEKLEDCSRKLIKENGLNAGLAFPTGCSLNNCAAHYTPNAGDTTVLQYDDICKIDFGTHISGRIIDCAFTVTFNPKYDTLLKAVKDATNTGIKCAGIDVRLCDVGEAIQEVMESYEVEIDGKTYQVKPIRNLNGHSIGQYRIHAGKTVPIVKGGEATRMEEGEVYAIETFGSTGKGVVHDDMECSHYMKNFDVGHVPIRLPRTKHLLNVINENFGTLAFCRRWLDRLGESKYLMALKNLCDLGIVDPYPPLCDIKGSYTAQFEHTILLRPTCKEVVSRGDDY

Row | IC50 (recombinant human MetAP2; [2]) | Compound | IC50 (recombinant human MetAP2) | inhibition in vivo at 0.3 mg/kg [1]
1 |  | CO[C@@H]1[C@H](OC(=O)NC2CC3(CCN(C)C3)C2)CC[C@]2(CO2)[C@H]1[C@@]1(C)O[C@@H]1CC=C(C)C (stereo partly drawn) [Example 11, (3R,4S,5S,6R)-5-methoxy-4-((2R,3R)-2-methyl-3-(3-methylbut-2-enyl)oxiran-2-yl)-1-oxaspiro[2.5]octan-6-yl 6-methyl-6-azaspiro[3.4]octan-2-ylcarbamate formate] | < 50 nM | 6%
2 |  | CO[C@@H]1[C@H](OC(=O)N2CCC3(CC2)CNC(=O)C3)CC[C@]2(CO2)[C@H]1[C@@]1(C)O[C@@H]1CC=C(C)C [Example 29, (3R,4S,5S,6R)-5-methoxy-4-((2R,3R)-2-methyl-3-(3-methylbut-2-enyl)oxiran-2-yl)-1-oxaspiro[2.5]octan-6-yl 3-oxo-2,8-diazaspiro[4.5]decane-8-carboxylate] |  | -0.5%
3 | 50 to 500 nM | CNC(=O)[C@H]1[C@@H]2CN(C(=O)O[C@@H]3CC[C@]4(CO4)[C@@H]([C@@]4(C)O[C@@H]4CC=C(C)C)[C@@H]3OC)C[C@@H]21 [Example 32, (1R,5S,6R)-(3R,4S,5S,6R)-5-methoxy-4-((2R,3R)-2-methyl-3-(3-methylbut-2-en-1-yl)oxiran-2-yl)-1-oxaspiro[2.5]octan-6-yl 6-(methylcarbamoyl)-3-azabicyclo[3.1.0]hexane-3-carboxylate] |  | 4%
4 | < 50 nM | CO[C@@H]1[C@H](OC(=O)N2CCC3(CCN(C)CC3)C2)CC[C@]2(CO2)[C@H]1[C@@]1(C)O[C@@H]1CC=C(C)C [Example 26, (3R,4S,5S,6R)-5-methoxy-4-((2R,3R)-2-methyl-3-(3-methylbut-2-enyl)oxiran-2-yl)-1-oxaspiro[2.5]octan-6-yl 8-methyl-2,8-diazaspiro[4.5]decane-2-carboxylate] |  | 5.6%
5 | < 50 nM | CO[C@@H]1[C@H](OC(=O)N2C[C@H]3CN(C)C[C@H]3C2)CC[C@]2(CO2)[C@H]1[C@@]1(C)O[C@@H]1CC=C(C)C [Example 20, (3aR,6aS)-((3R,4S,5S,6R)-5-methoxy-4-((2R,3R)-2-methyl-3-(3-methylbut-2-enyl)oxiran-2-yl)-1-oxaspiro[2.5]octan-6-yl) 5-methylhexahydropyrrolo[3,4-c]pyrrole-2(1H)-carboxylate formate] |  | 1.4%
6 |  | CO[C@@H]1[C@H](OC(=O)N2CCC3(CCN(C)C(=O)C3)CC2)CC[C@]2(CO2)[C@H]1[C@@]1(C)O[C@@H]1CC=C(C)C [Example 31, (3R,4S,5S,6R)-5-methoxy-4-((2R,3R)-2-methyl-3-(3-methylbut-2-enyl)oxiran-2-yl)-1-oxaspiro[2.5]octan-6-yl 9-methyl-8-oxo-3,9-diazaspiro[5.5]undecane-3-carboxylate] |  | 3.6%
7 | < 50 nM | CO[C@@H]1[C@H](OC(=O)NC2CC3(CCN(C)CC3)C2)CC[C@]2(CO2)[C@H]1[C@@]1(C)O[C@@H]1CC=C(C)C [Example 7, (3R,4S,5S,6R)-5-methoxy-4-((2R,3R)-2-methyl-3-(3-methylbut-2-enyl)oxiran-2-yl)-1-oxaspiro[2.5]octan-6-yl 7-methyl-7-azaspiro[3.5]nonan-2-ylcarbamate formate] |  | 1.9%
8 |  | CO[C@@H]1[C@H](OC(=O)N2CCC3(CN(CC(F)F)C3)C2)CC[C@]2(CO2)[C@H]1[C@@]1(C)O[C@@H]1CC=C(C)C [Example 15, (3R,4S,5S,6R)-5-methoxy-4-((2R,3R)-2-methyl-3-(3-methylbut-2-enyl)oxiran-2-yl)-1-oxaspiro[2.5]octan-6-yl 2-(2,2-difluoroethyl)-2,6-diazaspiro[3.4]octane-6-carboxylate] |  | 22.5%
9 |  | CO[C@@H]1[C@H](OC(=O)N2C[C@@H]3[C@@H](CN4CCOCC4)[C@@H]3C2)CC[C@]2(CO2)[C@H]1[C@@]1(C)O[C@@H]1CC=C(C)C [Example 40, (1R,5S,6S)-((3R,4S,5S,6R)-5-methoxy-4-((2R,3R)-2-methyl-3-(3-methylbut-2-enyl)oxiran-2-yl)-1-oxaspiro[2.5]octan-6-yl) 6-(morpholinomethyl)-3-azabicyclo[3.1.0]hexane-3-carboxylate] |  | 11.1%
10 |  | CO[C@@H]1[C@H](OC(=O)N2CCC3(CCN(CC(F)F)CC3)C2)CC[C@]2(CO2)[C@H]1[C@@]1(C)O[C@@H]1CC=C(C)C [Example 16, (3R,4S,5S,6R)-5-methoxy-4-((2R,3R)-2-methyl-3-(3-methylbut-2-enyl)oxiran-2-yl)-1-oxaspiro[2.5]octan-6-yl 8-(2,2-difluoroethyl)-2,8-diazaspiro[4.5]decane-2-carboxylate] |  | 23.4%
11 | 50 to 500 nM | CO[C@@H]1[C@H](OC(=O)N2C[C@@H]3[C@H](C2)[C@H]3C(=O)N(C)C)CC[C@]2(CO2)[C@H]1[C@@]1(C)O[C@@H]1CC=C(C)C [Example 33, (1R,5S,6R)-(3R,4S,5S,6R)-5-methoxy-4-((2R,3R)-2-methyl-3-(3-methylbut-2-en-1-yl)oxiran-2-yl)-1-oxaspiro[2.5]octan-6-yl 6-(dimethylcarbamoyl)-3-azabicyclo[3.1.0]hexane-3-carboxylate] |  | 13.8%
12 |  | CO[C@@H]1[C@H](OC(=O)N2C[C@@H]3[C@H](C2)[C@H]3C(=O)NCCN2CCOCC2)CC[C@]2(CO2)[C@H]1[C@@]1(C)O[C@@H]1CC=C(C)C [Example 37, (1R,5S,6R)-(3R,4S,5S,6R)-5-methoxy-4-((2R,3R)-2-methyl-3-(3-methylbut-2-en-1-yl)oxiran-2-yl)-1-oxaspiro[2.5]octan-6-yl 6-((2-morpholinoethyl)carbamoyl)-3-azabicyclo[3.1.0]hexane-3-carboxylate] |  | 4.3%
13 |  | CO[C@@H]1[C@H](OC(=O)N2CCC3(CCN(C)CC3)CC2)CC[C@]2(CO2)[C@H]1[C@@]1(C)O[C@@H]1CC=C(C)C [Example 28, (3R,4S,5S,6R)-5-methoxy-4-((2R,3R)-2-methyl-3-(3-methylbut-2-enyl)oxiran-2-yl)-1-oxaspiro[2.5]octan-6-yl 9-methyl-3,9-diazaspiro[5.5]undecane-3-carboxylate] |  | 8%
14 |  | CO[C@@H]1[C@H](OC(=O)N2CC3CC3C2)CC[C@]2(CO2)[C@H]1[C@@]1(C)O[C@@H]1CC=C(C)C (stereo partly drawn) [Example 21, (3R,4S,5S,6R)-5-methoxy-4-((2R,3R)-2-methyl-3-(3-methylbut-2-enyl)oxiran-2-yl)-1-oxaspiro[2.5]octan-6-yl 3-azabicyclo[3.1.0]hexane-3-carboxylate] |  | 21.2%
15 |  | CO[C@@H]1[C@H](OC(=O)N2CCC3(CCNC(=O)C3)CC2)CC[C@]2(CO2)[C@H]1[C@@]1(C)O[C@@H]1CC=C(C)C [Example 30, (3R,4S,5S,6R)-5-methoxy-4-((2R,3R)-2-methyl-3-(3-methylbut-2-enyl)oxiran-2-yl)-1-oxaspiro[2.5]octan-6-yl 8-oxo-3,9-diazaspiro[5.5]undecane-3-carboxylate] |  | 1.1%
16 |  | COC(=O)N1C[C@@H]2CN(C(=O)O[C@@H]3CC[C@]4(CO4)[C@@H]([C@@]4(C)O[C@@H]4CC=C(C)C)[C@@H]3OC)C[C@@H]2C1 [Example 42, (3aR,6aS)-2-((3R,4S,5S,6R)-5-methoxy-4-((2R,3R)-2-methyl-3-(3-methylbut-2-enyl)oxiran-2-yl)-1-oxaspiro[2.5]octan-6-yl) 5-methyl tetrahydropyrrolo[3,4-c]pyrrole-2,5(1H,3H)-dicarboxylate] |  | 12.4%

— US9944613B2, “Fumagillol spirocyclic compounds and fused bicyclic compounds and methods of making and using same” (Zafgen, Inc., priority 2015, dated 2018)
